Literature values, collected in PubChem BioAssay AID1259409 (Chemical Carcinogenesis Research Information System (CCRIS), 2018).

Test system: rodent chemically induced tumor inhibition, incidence and multiplicity
Test: CCRIS tumor inhibitor studies

In the case of `COc1cc(/C=C/C(=O)O)ccc1O`, the “tumour outcome (control, treated, inhibition, significance)” value (Carcinogen: AZOXYMETHANE [25843-45-2], Dose [Inhibitor]: 0, 500 PPM IN DIET FOR 23 WK BEGINNING POST LAST CARCINOGEN DOSE (STUDY DURATION: 35 WK), Route [Inhibitor]: ORAL, Species: RAT, Strain/Sex: F344/MALE, Target Tissue: Type of Lesion: LARGE INTESTINE: TUMOR, Dose [Carcinogen]: 15 MG/KG 3X/WK FOR 12 WK (STUDY DURATION: 35 WK), Promoter: NONE) is listed as 11%, 32%, -190%, not significant, the “tumour outcome (control, treated, inhibition, significance)” value (Carcinogen: AZOXYMETHANE [25843-45-2], Dose [Inhibitor]: 0, 500 PPM IN DIET FOR 23 WK BEGINNING POST LAST CARCINOGEN DOSE (STUDY DURATION: 35 WK), Route [Inhibitor]: ORAL, Species: RAT, Strain/Sex: F344/MALE, Target Tissue: Type of Lesion: SMALL INTESTINE: TUMOR, Dose [Carcinogen]: 15 MG/KG 3X/WK FOR 12 WK (STUDY DURATION: 35 WK), Promoter: NONE) is listed as 18%, 27%, -50%, not significant and the “tumour outcome (control, treated, inhibition, significance)” value (Carcinogen: AZOXYMETHANE [25843-45-2], Dose [Inhibitor]: 250 PPM IN DIET FOR 4 WK BEGINNING 1 WK PRIOR TO FIRST CARCINOGEN DOSE (STUDY DURATION: 35 WK), Route [Inhibitor]: ORAL, Species: RAT, Strain/Sex: F344/MALE, Target Tissue: Type of Lesion: LARGE INTESTINE: TUMOR, Dose [Carcinogen]: 15 MG/KG 1X/WK FOR 3 WK (STUDY DURATION: 35 WK), Promoter: NONE) is listed as 59%, 32%, 46%, not significant. The “tumour outcome (control, treated, inhibition, significance)” value (Carcinogen: AZOXYMETHANE [25843-45-2], Dose [Inhibitor]: 250 PPM IN DIET FOR 4 WK BEGINNING 1 WK PRIOR TO FIRST CARCINOGEN DOSE (STUDY DURATION: 35 WK), Route [Inhibitor]: ORAL, Species: RAT, Strain/Sex: F344/MALE, Target Tissue: Type of Lesion: SMALL INTESTINE: TUMOR, Dose [Carcinogen]: 15 MG/KG 1X/WK FOR 3 WK (STUDY DURATION: 35 WK), Promoter: NONE) was 23%, 5%, 78%, not significant, the “tumour outcome (control, treated, inhibition, significance)” value (Carcinogen: AZOXYMETHANE [25843-45-2], Dose [Inhibitor]: 250 PPM IN DIET FOR 31 WK BEGINNING 1 WK POST LAST CARCINOGEN DOSE (STUDY DURATION: 35 WK), Route [Inhibitor]: ORAL, Species: RAT, Strain/Sex: F344/MALE, Target Tissue: Type of Lesion: LARGE INTESTINE: TUMOR, Dose [Carcinogen]: 15 MG/KG 1X/WK FOR 3 WK (STUDY DURATION: 35 WK), Promoter: NONE) was 59%, 41%, 31%, not significant and the “tumour outcome (control, treated, inhibition, significance)” value (Carcinogen: AZOXYMETHANE [25843-45-2], Dose [Inhibitor]: 250 PPM IN DIET FOR 31 WK BEGINNING 1 WK POST LAST CARCINOGEN DOSE (STUDY DURATION: 35 WK), Route [Inhibitor]: ORAL, Species: RAT, Strain/Sex: F344/MALE, Target Tissue: Type of Lesion: SMALL INTESTINE: TUMOR, Dose [Carcinogen]: 15 MG/KG 1X/WK FOR 3 WK (STUDY DURATION: 35 WK), Promoter: NONE) was 23%, 23%, 0%, not significant. The “tumour outcome (control, treated, inhibition, significance)” value (Carcinogen: AZOXYMETHANE [25843-45-2], Dose [Inhibitor]: 500 PPM IN DIET FOR 4 WK BEGINNING 1 WK PRIOR TO FIRST CARCINOGEN DOSE (STUDY DURATION: 35 WK), Route [Inhibitor]: ORAL, Species: RAT, Strain/Sex: F344/MALE, Target Tissue: Type of Lesion: LARGE INTESTINE: TUMOR, Dose [Carcinogen]: 15 MG/KG 1X/WK FOR 3 WK (STUDY DURATION: 35 WK), Promoter: NONE) was 59%, 32%, 46%, not significant, the “tumour outcome (control, treated, inhibition, significance)” value (Carcinogen: AZOXYMETHANE [25843-45-2], Dose [Inhibitor]: 500 PPM IN DIET FOR 4 WK BEGINNING 1 WK PRIOR TO FIRST CARCINOGEN DOSE (STUDY DURATION: 35 WK), Route [Inhibitor]: ORAL, Species: RAT, Strain/Sex: F344/MALE, Target Tissue: Type of Lesion: SMALL INTESTINE: TUMOR, Dose [Carcinogen]: 15 MG/KG 1X/WK FOR 3 WK (STUDY DURATION: 35 WK), Promoter: NONE) was 23%, 5%, 78%, not significant and the “tumour outcome (control, treated, inhibition, significance)” value (Carcinogen: AZOXYMETHANE [25843-45-2], Dose [Inhibitor]: 500 PPM IN DIET FOR 31 WK BEGINNING 1 WK POST LAST CARCINOGEN DOSE (STUDY DURATION: 35 WK), Route [Inhibitor]: ORAL, Species: RAT, Strain/Sex: F344/MALE, Target Tissue: Type of Lesion: LARGE INTESTINE: TUMOR, Dose [Carcinogen]: 15 MG/KG 1X/WK FOR 3 WK (STUDY DURATION: 35 WK), Promoter: NONE) was 59%, 36%, 39%, not significant. The “tumour outcome (control, treated, inhibition, significance)” value (Carcinogen: AZOXYMETHANE [25843-45-2], Dose [Inhibitor]: 500 PPM IN DIET FOR 31 WK BEGINNING 1 WK POST LAST CARCINOGEN DOSE (STUDY DURATION: 35 WK), Route [Inhibitor]: ORAL, Species: RAT, Strain/Sex: F344/MALE, Target Tissue: Type of Lesion: SMALL INTESTINE: TUMOR, Dose [Carcinogen]: 15 MG/KG 1X/WK FOR 3 WK (STUDY DURATION: 35 WK), Promoter: NONE) was 23%, 27%, -17%, not significant, the “tumour outcome (control, treated, inhibition, significance)” value (Carcinogen: BENZO[A]PYRENE, 50-32-8, Dose [Inhibitor]: 0.06 MMOL/G OF DIET DAILY STARTING 8 D BEFORE AND CONTINUING THROUGH 3 D AFTER CARCINOGEN TREATMENT FOLLOWED BY OBSERVAT, Route [Inhibitor]: ORAL, Species: MOUSE, Strain/Sex: ICR/FEMALE, Target Tissue: Type of Lesion: FORESTOMACH: NEOPLASM, Dose [Carcinogen]: 1 MG IN 0.2 ML CORN OIL 2/WK FOR 4 WK, Promoter: NONE USED) was 100%, 90%, 10%, not significant and the “tumour outcome (control, treated, inhibition, significance)” value (Carcinogen: BENZO[A]PYRENE, 50-32-8, Dose [Inhibitor]: 100 MG/KG ADMINISTERED 1 HR BEFORE AND 6, 24, 48 AND 72 HR AFTER BENZO[A]PYRENE TREATMENT (STUDY DURATION: 6 MO), Route [Inhibitor]: INTRAPERITONEAL, Species: MOUSE, Strain/Sex: STRAIN-A/MALE, Target Tissue: Type of Lesion: LUNG: ADENOMA, Dose [Carcinogen]: 100 MG/KG ONCE, Promoter: NONE USED) was 18/18 (100%), 18/18 (100%), 0%, not significant. The “tumour outcome (control, treated, inhibition, significance)” value (Carcinogen: BENZO[A]PYRENE, 50-32-8, Dose [Inhibitor]: 100 MG/KG ADMINISTERED 1 HR BEFORE AND 6, 24, 48 AND 72 HR AFTER CARCINOGEN TREATMENT FOLLOWED BY 6 MO OBSERVATION PERIO, Route [Inhibitor]: INTRAPERITONEAL, Species: MOUSE, Strain/Sex: STRAIN A/MALE, Target Tissue: Type of Lesion: LUNG: ADENOMA, Dose [Carcinogen]: 100 MG/KG ONCE, Promoter: NONE USED) was 18/18 (100%), 18/18 (100%), 0%, not significant and the “tumour outcome (control, treated, inhibition, significance)” value (Carcinogen: N-NITROQUINOLINE-1-OXIDE, 56-57-5, Dose [Inhibitor]: 0, 500 PPM IN DIET FOR 7 WK BEGINNING 1 WK PRIOR TO START OF CARCINOGEN TREATMENT (STUDY DURATION: 32 WK), Route [Inhibitor]: ORAL, Species: RAT, Strain/Sex: F344\MALE, Target Tissue: Type of Lesion: TONGUE: CARCINOMA, Dose [Carcinogen]: 20 PPM IN DRINKING WATER FOR 5 WK, Promoter: NONE USED) was 9/15 (60%), 1/14 (7%), 88%, p=0.0035.
